Test results reported in patent US5480987A, “2-substituted alkyl-3-carboxy carbapenems as antibiotics and a method of producing them” (American Cyanamid Company, priority 1994, dated 1996).
Counter-ions that a name gives are not always drawn.

How the values were obtained:
Format in all cases: cell-based
Staph. aureus ACCC 25923 = test: In vitro antibacterial activity, MIC by tube dilution, SA(2); conditions: Nutrient Broth; for MIC: Staphylococcus aureus, ACCC25923, overnight incubation at 37° C., read-out: Minimum Inhibitory Concentration (MIC)
Ser. marceslens = test: In vitro antibacterial activity, MIC by tube dilution, SM; conditions: overnight incubation at 37° C., Nutrient Broth; for MIC: read-out: Minimum Inhibitory Concentration (MIC)
Staph. aureus ATCC 29213 = test: In vitro antibacterial activity, MIC by tube dilution, SA(1); conditions: Nutrient Broth; for MIC: Staphylococcus aureus, ATCC29213, overnight incubation at 37° C., read-out: Minimum Inhibitory Concentration (MIC)
Ent. cloacae = test: In vitro antibacterial activity, MIC by tube dilution, Ent C; conditions: overnight incubation at 37° C., Nutrient Broth; for MIC: Enterobacter cloacae, read-out: Minimum Inhibitory Concentration (MIC)
E. coli ATCC 35218 = test: In vitro antibacterial activity, MIC by tube dilution, Ec(2); conditions: Nutrient Broth; for MIC: Escherichia coli, ATCC35218, overnight incubation at 37° C., read-out: Minimum Inhibitory Concentration (MIC)
E. coli ATCC 25922 = test: In vitro antibacterial activity, MIC by tube dilution, Ec(1); conditions: Nutrient Broth; for MIC: Escherichia coli, ATCC25922, overnight incubation at 37° C., read-out: Minimum Inhibitory Concentration (MIC)
E. Coli-OXA-2 = test: In vitro antibacterial activity of carbapenem, piperacillin and 1:1 combination; conditions: single agent
Method: (§1) A sample of the carbapenems prepared in this invention is tested in combination with the penicillin Piperacillin. The enhanced combined synergistic antibacterial activity is representative of the anti β-lactamase properties of the carbapenems in this invention (Table 2).

E. Coli-OXA-7 = test: as above; conditions: single agent
Method: as §1

E. Coli-OXA-5 = test: as above; conditions: single agent
Method: as §1

E. Coli-OXA-4 = test: as above; conditions: single agent
Method: as §1

Pseudomonas OXA-6 = test: as above; conditions: single agent
Method: as §1

Compound	MIC (Staph. aureus ACCC 25923) [mg/L]	MIC (Ser. marceslens) [mg/L]	MIC (Staph. aureus ATCC 29213) [mg/L]	MIC (Ent. cloacae) [mg/L]	MIC (E. coli ATCC 35218) [mg/L]	MIC (E. coli ATCC 25922) [mg/L]	Minimum Inhibitory Concentration (MIC) (Staph. aureus ACCC 25923; overnight incubation at 37° C.) [mg/L]	Minimum Inhibitory Concentration (MIC) (Ser. marceslens) [mg/L]	Minimum Inhibitory Concentration (MIC) (Staph. aureus ATCC 29213; overnight incubation at 37° C.) [mg/L]	Minimum Inhibitory Concentration (MIC) (Ent. cloacae) [mg/L]	Minimum Inhibitory Concentration (MIC) (E. coli ATCC 35218; overnight incubation at 37° C.) [mg/L]	Minimum Inhibitory Concentration (MIC) (E. coli ATCC 25922; overnight incubation at 37° C.) [mg/L]	M.I.C. (E. Coli-OXA-2) [µg/mL]	M.I.C. (E. Coli-OXA-7) [µg/mL]	M.I.C. (E. Coli-OXA-5) [µg/mL]	M.I.C. (E. Coli-OXA-4) [µg/mL]	M.I.C. (Pseudomonas OXA-6) [µg/mL]
CC(O)C1C(=O)N2C(C(=O)O)=C(CS(=O)(=O)c3cccs3)CC12 (stereo not drawn) [Example 10, [5R-[5Alpha,6alpha(R*)]]-6-(1-hydroxyethyl)-3-[(2-thienylsulfonyl)methyl]-7-oxo-1-azabicyclo[3.2.0]-hept-2-ene-2-carboxylic acid, monosodium salt]	0.06	32	0.06	32	1	1	–	–	–	–	–	–	–	–	–	–	–
COC(=O)C(Cl)=C1CC2C(C(C)O)C(=O)N2C1C(=O)[O-].[Na+] (stereo not drawn) [Example 44, (2R-[2Alpha,3(R* or S*),5alpha,6alpha(R*)]]-3-(1-chloro-2-methoxy-2-oxoethylidene)-6-(1-hydroxyethyl)-7-oxo-1-azabicyclo[3.2.0]heptane-2-carboxylic acid, monosodium salt]	–	–	–	–	–	–	64	128	64	128	128	128	–	–	–	–	–
CC(O)C1C(=O)N2C(C(=O)O)=C(CS(=O)(=O)c3ccc(F)cc3)CC12 (stereo not drawn) [Example 48, [5R-[5Alpha,6alpha(R*)]]3-[[fluorophenyl)sulfonyl]methyl]-6-(1-hydroxyethyl)-7-oxo-1-azabicyclo[3.2.0]hept-2-ene-2-carboxylic acid, monosodium salt]	0.06	32	0.06	64	8	8	–	–	–	–	–	–	32	16	32	32	128
CCN1CCN(C(=O)N[C@@H](C(=O)N[C@@H]2C(=O)N3[C@@H]2SC(C)(C)[C@@H]3C(=O)O)c2ccccc2)C(=O)C1=O [Piperacillin, reference compound]	–	–	–	–	–	–	–	–	–	–	–	–	16	128	2	8	32
